Source: US20120172385A1, “ORTHO SUBSTITUTED PYRIMIDINE COMPOUNDS AS JAK INHIBITORS” (priority 2009, published 2012)

Key:
organ transplantation = settings: Changelian et al., 2003; cited from earlier work
JAK3 = biological target: T1, JAK3 (Homo sapiens, UniProt P52333); experiment: Kinobeads assay, JAK3 (dot blot detection); format: binding; settings: mixed Molt4/Ramos lysate
T1 construct: endogenous in cells; host or cells: Molt4 (ATCC CRL-1582) and Ramos (ATCC CRL-1596) cell lysate, mixed 1:2
T1 sequence (P52333 1-1124): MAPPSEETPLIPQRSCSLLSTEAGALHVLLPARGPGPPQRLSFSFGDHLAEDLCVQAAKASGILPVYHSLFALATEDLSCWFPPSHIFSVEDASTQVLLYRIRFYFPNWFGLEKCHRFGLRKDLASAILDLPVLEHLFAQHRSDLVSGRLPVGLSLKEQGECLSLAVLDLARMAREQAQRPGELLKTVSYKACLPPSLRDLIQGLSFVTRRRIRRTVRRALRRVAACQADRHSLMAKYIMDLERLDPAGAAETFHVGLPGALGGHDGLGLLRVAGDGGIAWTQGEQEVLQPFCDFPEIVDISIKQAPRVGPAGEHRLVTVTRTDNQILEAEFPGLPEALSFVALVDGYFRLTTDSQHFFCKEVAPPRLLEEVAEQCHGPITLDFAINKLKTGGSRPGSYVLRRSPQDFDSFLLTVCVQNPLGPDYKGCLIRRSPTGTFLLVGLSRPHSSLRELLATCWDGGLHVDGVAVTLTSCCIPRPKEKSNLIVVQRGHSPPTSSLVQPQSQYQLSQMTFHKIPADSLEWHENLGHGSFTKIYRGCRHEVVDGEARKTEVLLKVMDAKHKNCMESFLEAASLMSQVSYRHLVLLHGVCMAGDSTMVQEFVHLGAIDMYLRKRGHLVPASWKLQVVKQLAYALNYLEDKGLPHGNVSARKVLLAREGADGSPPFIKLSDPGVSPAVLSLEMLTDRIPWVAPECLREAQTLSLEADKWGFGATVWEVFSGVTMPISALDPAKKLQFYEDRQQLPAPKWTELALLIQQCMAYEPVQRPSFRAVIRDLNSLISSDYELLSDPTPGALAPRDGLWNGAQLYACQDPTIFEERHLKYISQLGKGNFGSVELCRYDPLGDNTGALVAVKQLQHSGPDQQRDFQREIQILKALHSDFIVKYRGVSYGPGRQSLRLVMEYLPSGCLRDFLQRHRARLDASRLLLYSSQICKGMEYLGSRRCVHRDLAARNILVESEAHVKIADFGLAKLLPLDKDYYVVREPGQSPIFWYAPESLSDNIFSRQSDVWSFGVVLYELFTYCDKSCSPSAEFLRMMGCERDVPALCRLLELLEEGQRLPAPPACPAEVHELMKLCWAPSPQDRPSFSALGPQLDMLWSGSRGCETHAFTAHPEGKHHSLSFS
Description: (§1) The compounds of the present invention as described in the previous examples were tested in a Kinobeads™ assay as described for ZAP-70 (WO-A 2007/137867). Briefly, test compounds (at various concentrations) and the affinity matrix with the immobilized aminopyrido-pyrimidine ligand 24 were added to cell lysate aliquots and allowed to bind to the proteins in the lysate sample. After the incubation time the beads with captured proteins were separated from the lysate. Bound proteins were then eluted and the presence of JAK2 and JAK3 was detected and quantified using specific antibodies in a dot blot procedure and the Odyssey infrared detection system. Dose response curves for individual kinases were generated and IC50 values calculated. Kinobeads™ assays for ZAP-70 (WO-A 2007/137867) and for kinase selectivity profiling (WO-A 2006/134056) have been previously described.
(§2) The affinity matrix was washed two times with 15 mL of 1×DP buffer containing 0.2% NP40 (IGEPAL® CA-630, Sigma, #I3021) and then resuspended in 1×DP buffer containing 0.2% NP40 (3% beads slurry).
(§3) 5×DP buffer: 250 mM Tris-HCl pH 7.4, 25% Glycerol, 7.5 mM MgCl2, 750 mM NaCl, 5 mM Na3VO4; filter the 5×DP buffer through a 0.22 μm filter and store in aliquots at −80° C. The 5×DP buffer is diluted with H2O to 1×DP buffer containing 1 mM DTT and 25 mM NaF.
(§4) Stock solutions of test compounds were prepared in DMSO. In a 96 well plate 30 μL solution of diluted test compounds at 5 mM in DMSO were prepared. Starting with this solution a 1:3 dilution series (9 steps) was prepared. For control experiments (no test compound) a buffer containing 2% DMSO was used.
(§5) Molt4 cells (ATCC catalogue number CRL-1582) and Ramos cells (ATCC catalogue number CRL-1596) were grown in 1 L Spinner flasks (Integra Biosciences, #182101) in suspension in RPMI 1640 medium (Invitrogen, #21875-034) supplemented with 10% Fetal Bovine Serum (Invitrogen) at a density between 0.15×10^6 and 1.2×10^6 cells/mL. Cells were harvested by centrifugation, washed once with 1×PBS buffer (Invitrogen, #14190-094) and cell pellets were frozen in liquid nitrogen and subsequently stored at −80° C. Cells were homogenized in a Potter S homogenizer in lysis buffer: 50 mM Tris-HCl, 0.8% NP40, 5% glycerol, 150 mM NaCl, 1.5 mM MgCl2, 25 mM NaF, 1 mM sodium vanadate, 1 mM DTT, pH 7.5. One complete EDTA-free tablet (protease inhibitor cocktail, Roche Diagnostics, 1873580) per 25 mL buffer was added. The material was dounced 10 times using a mechanized POTTER S, transferred to 50 mL falcon tubes, incubated for 30 minutes on ice and spun down for 10 minutes at 20,000 g at 4° C. (10,000 rpm in Sorvall SLA600, precooled). The supernatant was transferred to an ultracentrifuge (UZ)-polycarbonate tube (Beckmann, 355654) and spun for 1 hour at 100.000 g at 4° C. (33.500 rpm in Ti50.2, precooled). The supernatant was transferred again to a fresh 50 mL falcon tube, the protein concentration was determined by a Bradford assay (BioRad) and samples containing 50 mg of protein per aliquot were prepared. The samples were immediately used for experiments or frozen in liquid nitrogen and stored frozen at −80° C.
(§6) Cell lysate (approximately 50 mg protein per plate) was thawed in a water bath at room temperature and then stored on ice. To the thawed cell lysate 1×DP 0.8% NP40 buffer containing protease inhibitors (1 tablet for 25 mL buffer; EDTA-free protease inhibitor cocktail; Roche Diagnostics 1873580) was added in order to reach a final protein concentration of 10 mg/mL total protein. The diluted cell lysate was stored on ice. Mixed Molt4/Ramos lysate was prepared by combining one volume of Molt4 lysate and two volumes of Ramos lysate (ratio 1:2).
(§7) To a 96 well filter plate (Multiscreen HTS, BV Filter Plates, Millipore #MSBVN1250) were added per well: 100 μL affinity matrix (3% beads slurry), 3 μL of compound solution, and 50 μL of diluted lysate. […]

JAK2 = biological target: T2, JAK2 (Homo sapiens, UniProt O60674); experiment: Kinobeads assay, JAK2 (dot blot detection); format: binding; settings: mixed Molt4/Ramos lysate
T2 construct: endogenous in cells; host or cells: Molt4 (ATCC CRL-1582) and Ramos (ATCC CRL-1596) cell lysate, mixed 1:2
Description: as §1, §2, §3, §4, §5, §6, §7

GVHD = settings: reviewed in Cetkovic-Cvrlje and Ucken, 2004; cited from earlier work
[1] = test system: spontaneous autoimmune diabetes; settings: NOD mouse model of type I diabetes; cited from earlier work

T2 sequence (O60674 whole entry): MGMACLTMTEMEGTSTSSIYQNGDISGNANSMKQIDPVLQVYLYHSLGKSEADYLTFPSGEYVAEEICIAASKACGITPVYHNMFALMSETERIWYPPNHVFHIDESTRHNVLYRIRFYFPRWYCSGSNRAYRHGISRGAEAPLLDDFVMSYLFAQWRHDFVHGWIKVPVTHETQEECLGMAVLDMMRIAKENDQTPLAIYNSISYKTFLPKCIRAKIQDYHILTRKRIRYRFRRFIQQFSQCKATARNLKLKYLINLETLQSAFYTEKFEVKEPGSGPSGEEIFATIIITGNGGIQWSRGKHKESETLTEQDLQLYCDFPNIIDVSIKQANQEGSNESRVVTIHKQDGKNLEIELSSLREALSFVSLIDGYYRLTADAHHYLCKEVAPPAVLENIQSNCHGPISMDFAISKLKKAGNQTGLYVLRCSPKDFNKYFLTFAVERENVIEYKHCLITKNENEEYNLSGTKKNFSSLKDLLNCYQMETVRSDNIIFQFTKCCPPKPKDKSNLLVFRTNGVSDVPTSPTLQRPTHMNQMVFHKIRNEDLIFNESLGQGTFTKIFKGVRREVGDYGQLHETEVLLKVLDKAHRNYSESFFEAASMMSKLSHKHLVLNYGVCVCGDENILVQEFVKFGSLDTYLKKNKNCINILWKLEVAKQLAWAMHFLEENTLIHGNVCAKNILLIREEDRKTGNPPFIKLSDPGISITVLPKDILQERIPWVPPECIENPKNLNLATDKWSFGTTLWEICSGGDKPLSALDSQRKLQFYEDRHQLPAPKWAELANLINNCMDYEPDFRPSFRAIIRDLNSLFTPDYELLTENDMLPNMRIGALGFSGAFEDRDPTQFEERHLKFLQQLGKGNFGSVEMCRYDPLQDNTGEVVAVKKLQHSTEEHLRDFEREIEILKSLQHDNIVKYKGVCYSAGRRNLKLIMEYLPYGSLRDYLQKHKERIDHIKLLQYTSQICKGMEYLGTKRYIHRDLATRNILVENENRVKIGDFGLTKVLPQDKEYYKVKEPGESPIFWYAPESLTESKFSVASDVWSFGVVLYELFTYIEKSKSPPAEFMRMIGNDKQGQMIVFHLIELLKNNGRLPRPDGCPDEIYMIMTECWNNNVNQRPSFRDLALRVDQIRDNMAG

SMILES	IC50 (JAK3)	IC50 (JAK2)	efficacy in an animal model of organ transplantation (organ transplantation)	severity of GVHD (GVHD)	prevention of spontaneous autoimmune diabetes development [1]
C[C@@H]1CCN(C(=O)CC#N)C[C@@H]1N(C)c1ncnc2[nH]ccc12 [CP-690,550]			show efficacy		
COc1ccc(Nc2nc(Nc3cc(-n4cnnc4)ccc3C)ncc2Cl)c(NS(C)(=O)=O)c1 [Example 13, N-(2-(5-chloro-2-(2-methyl-5-(4H-1,2,4-triazol-4-yl)phenylamino)pyrimidin-4-ylamino)-5-methoxyphenyl)methanesulfonamide]	< 100 nM	100 to 1000 nM			
COc1ccc(C(=O)N2CCCCC2)cc1Nc1ncc(Cl)c(Nc2ccccc2NS(C)(=O)=O)n1 [Example 19, N-(2-(5-chloro-2-(2-methoxy-5-(piperidine-1-carbonyl)phenylamino)pyrimidin-4-ylamino)phenyl)methanesulfonamide]	100 to 1000 nM	≥ 10000 nM			
COc1ccc(Nc2nc(Nc3cc(-n4cnnn4)ccc3C)ncc2Cl)c(NS(C)(=O)=O)c1 [Example 12, N-(2-(5-chloro-2-(2-methyl-5-(1H-tetrazol-1-yl)phenylamino)pyrimidin-4-ylamino)-5-methoxyphenyl)methanesulfonamide]	< 100 nM	1000 to 10000 nM			
COc1ccc(Nc2nc(Nc3cc(-n4cnnc4)ccc3OC)ncc2Cl)c(NS(C)(=O)=O)c1 [Example 11, N-(2-(5-chloro-2-(2-methoxy-5-(4H-1,2,4-triazol-4-yl)phenylamino)pyrimidin-4-ylamino)-5-methoxyphenyl)methanesulfonamide]	< 100 nM	1000 to 10000 nM			
CCNC(=O)c1ccc(OC)c(Nc2ncc(Cl)c(Nc3ccccc3NS(=O)(=O)CC)n2)c1 [Example 26, 3-(5-chloro-4-(2-(ethylsulfonamido)phenylamino)pyrimidin-2-ylamino)-N-ethyl-4-methoxybenzamide]	100 to 1000 nM	≥ 10000 nM			
Cc1ccc(C#N)cc1Nc1ncc(Cl)c(Nc2cccc(F)c2NS(C)(=O)=O)n1 [Example 23, N-(2-(5-chloro-2-(5-cyano-2-methylphenylamino)pyrimidin-4-ylamino)-6-fluorophenyl)methanesulfonamide]	1000 to 10000 nM	≥ 10000 nM			
CCS(=O)(=O)Nc1ccccc1Nc1nc(Nc2cc(C#N)ccc2OC)ncc1Cl [Example 25, N-(2-(5-chloro-2-(5-cyano-2-methoxyphenylamino)pyrimidin-4-ylamino)phenyl)ethanesulfonamide]	100 to 1000 nM	≥ 10000 nM			
COc1cc2ncnc(Nc3ccc(O)cc3)c2cc1OC [JANEX-1]				attenuate the severity of GVHD	prevent spontaneous autoimmune diabetes development

Continued, in another order:

IC50 (JAK3)	IC50 (JAK2)	SMILES	efficacy in an animal model of organ transplantation (organ transplantation)	severity of GVHD (GVHD)	prevention of spontaneous autoimmune diabetes development [1]
< 100 nM		CCNC(=O)c1ccc(OC)c(Nc2ncc(Cl)c(Nc3ccccc3NS(C)(=O)=O)n2)c1 [Example 21]			
100 to 1000 nM	≥ 10000 nM	Cc1ccc(C(=O)N(C)C)cc1Nc1ncc(Cl)c(Nc2ccccc2NS(C)(=O)=O)n1 [Example 24, 3-(5-chloro-4-(2-(methylsulfonamido)phenylamino)pyrimidin-2-ylamino)-N,N,4-trimethylbenzamide]			
100 to 1000 nM	≥ 10000 nM	CCS(=O)(=O)Nc1ccccc1Nc1nc(Nc2cc(C(=O)NC)ccc2OC)ncc1Cl [Example 27, 3-(5-chloro-4-(2-(ethylsulfonamido)phenylamino)pyrimidin-2-ylamino)-4-methoxy-N-methylbenzamide]			
< 100 nM	≥ 10000 nM	CNC(=O)c1ccc(OC)c(Nc2ncc(Cl)c(Nc3ccccc3NS(C)(=O)=O)n2)c1 [Example 17, 3-(5-chloro-4-(2-(methylsulfonamido)phenylamino)pyrimidin-2-ylamino)-4-methoxy-N-methylbenzamide]			
100 to 1000 nM	1000 to 10000 nM	Cc1ccc(C#N)cc1Nc1ncc(Cl)c(Nc2ccccc2NS(C)(=O)=O)n1 [Example 14, N-(2-(5-chloro-2-(5-cyano-2-methylphenylamino)pyrimidin-4-ylamino)phenyl)methanesulfonamide]			
< 100 nM		COc1ccc(C(=O)NC2CC2)cc1Nc1ncc(Cl)c(Nc2ccccc2NS(C)(=O)=O)n1 [Example 20]			
< 100 nM		COc1ccc(C(=O)NC(C)C)cc1Nc1ncc(Cl)c(Nc2ccccc2NS(C)(=O)=O)n1 [Example 18]			
100 to 1000 nM	≥ 10000 nM	CNC(=O)c1ccc(Cl)c(Nc2ncc(Cl)c(Nc3ccccc3NS(C)(=O)=O)n2)c1 [Example 16, 4-Chloro-3-(5-chloro-4-(2-(methylsulfonamido)phenylamino)pyrimidin-2-ylamino)-N-methylbenzamide]			
